In patent publication US11246929B2, “Combination of a protein kinase inhibitor and an additional chemotherapeutic agent” (Merck Patent GmbH, priority 2016, dated 2022):

Tested on: MO59K (DNA-PK wild type)
Assay: AlamarBlue viability assay
Assay type: cell-based, human
Settings: compound incubation for 72 h
Experimental: Details of the assay protocol and material utilized are set forth below.
After 24 h incubation at 37° C.
At the end of the compound incubation period 20 μl AlamarBlue reagent was added per well and the 96-well plates were incubated further up to seven hours. Absorption was determined at 540 nm by using Tecan Reader Connect and Magelan 7.
0% effect=cells treated with DMSO; −100% effect=no cells

[2H]c1nc(C)nc([2H])c1-c1cc(NC[C@@H](C)c2cccc3c(C(N)=O)ccnc23)ncn1 [VX984, 8-[(1S)-2-[[6-(4,6-dideuterio-2-methylpyrimidin-5-yl)pyrimidin-4-yl]amino]-1-methylethyl]quinoline-4-carboxamide]
potentiation of etoposide, Compound 1 in comparison to VX-984: requires higher concentrations of etoposide to arrive at the same % effect
